Assay results as given in patent US20160009693A1, “HERBICIDAL COMPOUNDS” (SYNGENTA LIMITED, priority 2013, published 2016).

How the values were obtained:
Assay type in all cases: in vivo
Settings in all cases: applied at 1000 g/h, evaluated after 13 days
Setaria faberi (SETFA) [1] = experiment: Herbicidal glasshouse test, pre-emergence, SETFA
Solanum nigrum (SOLNI) [2] = experiment: Herbicidal glasshouse test, pre-emergence, SOLNI
Procedure, shortened: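 Seeds of Solanum nigrum were sown in pots of standard soil and kept one day in a glasshouse at 24/16° C. day/night, 14 hours light and 65% humidity. For the pre-emergence treatment they were then sprayed with an aqueous solution of the active ingredient formulated in acetone/water (50:50) containing 0.5% Tween 20. Plant damage was rated after 13 days.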

Solanum nigrum (SOLNI) [3] = experiment: Herbicidal glasshouse test, post-emergence, SOLNI
[4] = test system: Amaranthus retoflexus (AMARE); experiment: Herbicidal glasshouse test, pre-emergence, AMARE
Procedure, shortened: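 Amaranthus retoflexus seeds were sown in pots of standard soil and kept one day in a glasshouse at 24/16° C. (day/night), 14 hours light and 65% humidity. They were then sprayed pre-emergence with the active ingredient in acetone/water (50:50) containing 0.5% Tween 20. Plants grew under the same conditions, watered twice daily, and percentage damage was scored after 13 days.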

[5] = test system: Echinochloa crus-galli (ECHCG); experiment: Herbicidal glasshouse test, pre-emergence, ECHCG
Procedure, shortened: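 Echinochloa crus-galli seeds were sown in standard soil in pots and grown for one day in a glasshouse at 24/16° C. day/night, 14 hours light and 65% humidity. Pre-emergence spraying used an aqueous solution of the active ingredient in acetone/water (50:50) with 0.5% Tween 20. Damage was scored after 13 days on a five point scale.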

[6] = test system: Echinochloa crus-galli (ECHCG); experiment: Herbicidal glasshouse test, post-emergence, ECHCG
Procedure, shortened: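 Echinochloa crus-galli (ECHCG) seeds were sown in standard soil in pots and grown for 8 days in a glasshouse at 24/16° C. day/night, 14 hours light and 65% humidity. The young plants were then sprayed post-emergence with the active ingredient in acetone / water (50:50) containing 0.5% Tween 20. Damage was scored after 13 days.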

[7] = test system: Ipomoea hederacea (IPOHE); experiment: Herbicidal glasshouse test, post-emergence, IPOHE
[8] = test system: Alopecurus myosuroides (ALOMY); experiment: Herbicidal glasshouse test, pre-emergence, ALOMY
[9] = test system: Alopecurus myosuroides (ALOMY); experiment: Herbicidal glasshouse test, post-emergence, ALOMY
Setaria faberi (SETFA) [10] = experiment: Herbicidal glasshouse test, post-emergence, SETFA
Procedure, shortened: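 Setaria faberi seeds were sown in standard soil in pots and grown for 8 days in a glasshouse at 24/16° C. day/night, 14 hours light and 65% humidity. The seedlings were then sprayed post-emergence with the active ingredient in acetone/water (50:50) containing 0.5% Tween 20. Afterwards they were kept under the same conditions, watered twice daily, and scored for percentage damage on a five point scale.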

[11] = test system: Amaranthus retoflexus (AMARE); experiment: Herbicidal glasshouse test, post-emergence, AMARE
Procedure, shortened: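 Amaranthus retoflexus (AMARE) seeds were sown in pots of standard soil and grown in a glasshouse at 24/16° C. day/night, 14 hours light and 65% humidity for 8 days. The plants were then sprayed post-emergence with an aqueous solution of the active ingredient in acetone/water (50:50) with 0.5% Tween 20. Damage was scored after 13 days.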

[12] = test system: Ipomoea hederacea (IPOHE); experiment: Herbicidal glasshouse test, pre-emergence, IPOHE

Structure (SMILES) | PRE Application SETFA, percentage damage (five point scale) (Setaria faberi (SETFA) [1]) | PRE Application SOLNI, percentage damage (five point scale) (Solanum nigrum (SOLNI) [2]) | POST Application SOLNI, percentage damage (five point scale) (Solanum nigrum (SOLNI) [3]) | PRE Application AMARE, percentage damage (five point scale) [4] | PRE Application ECHCG, percentage damage (five point scale) [5] | POST Application ECHCG, percentage damage (five point scale) [6] | POST Application IPOHE, percentage damage (five point scale) [7] | PRE Application ALOMY, percentage damage (five point scale) [8] | POST Application ALOMY, percentage damage (five point scale) [9] | POST Application SETFA, percentage damage (five point scale) (Setaria faberi (SETFA) [10]) | POST Application AMARE, percentage damage (five point scale) [11] | PRE Application IPOHE, percentage damage (five point scale) [12]
Cn1nnnc1NC(=O)c1nn(C)c(=O)n(Cc2ccccc2Br)c1=O [Compound 1.082] | 3 (3=40-59%) | 5 (5=80-100%) | 5 (5=80-100%) | 5 (5=80-100%) | 5 (5=80-100%) | 5 (5=80-100%) | 5 (5=80-100%) | 5 (5=80-100%) | 5 (5=80-100%) | 2 (2=20-39%) | 5 (5=80-100%) | 5 (5=80-100%)
CC(C)Cn1c(=O)c(C(=O)Nc2nnnn2C)nn(C)c1=O [Compound 1.005] | 5 (5=80-100%) | 5 (5=80-100%) | 5 (5=80-100%) | 5 (5=80-100%) | 5 (5=80-100%) | 5 (5=80-100%) | 5 (5=80-100%) | 5 (5=80-100%) | 5 (5=80-100%) | 5 (5=80-100%) | 5 (5=80-100%) | 4 (4=60-79%)
Cn1nnnc1NC(=O)c1nn(C)c(=O)n(Cc2cccc(Cl)c2)c1=O [Compound 1.084] | 2 (2=20-39%) | 5 (5=80-100%) | 5 (5=80-100%) | 5 (5=80-100%) | 5 (5=80-100%) | 5 (5=80-100%) | 5 (5=80-100%) | 5 (5=80-100%) | 5 (5=80-100%) | 2 (2=20-39%) | 5 (5=80-100%) | 5 (5=80-100%)
CCc1ccc(-n2c(=O)c(C(=O)Nc3nnnn3C)nn(C)c2=O)cc1 [Compound 1.006] | 5 (5=80-100%) | 5 (5=80-100%) | 5 (5=80-100%) | 5 (5=80-100%) | 5 (5=80-100%) | 5 (5=80-100%) | 5 (5=80-100%) | 5 (5=80-100%) | 5 (5=80-100%) | 5 (5=80-100%) | 5 (5=80-100%) | 5 (5=80-100%)
Cn1nnnc1NC(=O)c1nn(C)c(=O)n(Cc2ccccc2F)c1=O [Compound 1.058] | 5 (5=80-100%) | 5 (5=80-100%) | 5 (5=80-100%) | 5 (5=80-100%) | 5 (5=80-100%) | 5 (5=80-100%) | 5 (5=80-100%) | 5 (5=80-100%) | 5 (5=80-100%) | 5 (5=80-100%) | 5 (5=80-100%) | 5 (5=80-100%)
